Data: US9018000B2, “Voltage gated calcium channel β-subunit anchoring regulator protein and uses thereof” (Agency for Science, Technology and Research, priority 2007, dated 2015)

Tests used:
[1] = cited from earlier work
β-subunits = experiment: co-immunoprecipitation / co-precipitation of BARP with β-subunits; format: binding
Procedure: To verify that BARP binds to the β-subunits in mammalian cells, co-immunoprecipitation experiments were carried out in COS-1 cells. […] To confirm this association in vivo, we determined the subcellular localization of the β-subunits in the presence of BARP in transfected PC12 and COS-1 cells.
To examine that domain I is indeed a AID-like region, we first mutated the known amino acids in the β-subunit hydrophobic groove responsible for AID interaction, and tested these mutants for association with either AID or BARP domain I by co-precipitation studies. In comparison with the AID domain that only required M196 as a crucial interacting site, almost all amino acid substitutions in the hydrophobic groove of β-subunits interfered with BARP domain I interaction (FIG. 2Cb).
Next, we determined if additional binding sites in BARP are present for β-subunit association. With the use of truncated form of the protein, in which the domain I was abolished, and co-precipitation experiments, we identified a second domain (Dom. II) downstream to the first one (FIG. 2Da).
To further confirm that both domains associate to the β-subunit in the context of full-length BARP, domain I and II were mutated to abolish their respective interaction. […]

β3/AID complex = biological target: T1, β3/AID complex (Rattus norvegicus, UniProt P54287); experiment: dissociation of β3-subunits from GST-AID by competitive peptides; format: binding; settings: peptide 30, 60, 300, 600 nM, four hours, Western blot of supernatant
T1 construct: expressed in transfected cells; host or cells: COS-1 (β3 lysate)
T1 sequence (P54287 whole entry, one chain of several): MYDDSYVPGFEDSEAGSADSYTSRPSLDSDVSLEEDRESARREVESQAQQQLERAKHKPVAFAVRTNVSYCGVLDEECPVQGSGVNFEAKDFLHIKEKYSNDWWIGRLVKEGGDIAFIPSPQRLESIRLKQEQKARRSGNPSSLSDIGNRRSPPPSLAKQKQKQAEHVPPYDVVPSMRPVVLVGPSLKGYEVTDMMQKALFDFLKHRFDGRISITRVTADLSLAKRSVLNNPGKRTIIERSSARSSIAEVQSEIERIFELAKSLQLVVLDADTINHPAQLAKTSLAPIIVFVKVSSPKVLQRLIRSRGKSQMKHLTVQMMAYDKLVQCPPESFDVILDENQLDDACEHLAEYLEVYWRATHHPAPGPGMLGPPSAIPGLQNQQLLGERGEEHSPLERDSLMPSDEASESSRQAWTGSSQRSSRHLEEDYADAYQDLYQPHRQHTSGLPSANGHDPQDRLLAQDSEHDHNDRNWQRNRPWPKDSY
Description: A, Cell surface expression of HA-epitope tagged Cav1.2 and N-Myc BARP in the presence or absence of Cavβ-subunits. Intact cells expressing Cav1.2, BARP and Cavβ-subunits were immunostained with HA and Myc antibodies. Cav 1.2 AID (X) is a mutant deficient in the β-interacting domain. BARP (db) is a mutant deficient in domain I and II, BARP (LW), or BARP (LFFL), mutants are deficient in domain I and II, respectively. Non-permeabilized TsA201 cells co-expressing wt or mutated HA-Cav1.2, wt or mutated Myc-BARP and the Cavβ-subunits were immunostained with antibodies to HA (green) and Myc (red). Cav 1.2 AID (X) and BARP (db) are mutants defective in Cavβ-subunit binding. […] In vivo expressed Cavβ3-subunits were pulled-down using a GST-AID fusion protein and the complex then incubated with increasing amounts of AID or BARP Domain I peptide. The Cavβ3-subunit displaced from the GST-AID was monitored by Western blot. […] Effects of wt or mutated BARP on the I-V relationship of Ca^2+-channels are shown. […]
To verify if the AID-like domain of BARP dissociates β-subunits from the AID of α1-subunits, COS-1 cells lysate expressing β3 subunits was incubated with GST-AID fusion protein to form a β3/AID complex and subsequently, the dissociation of β3 subunits was monitored after addition of an increasing amount of competitive AID or AID-like BARP peptide (FIG. 4D).

| Compound | association with β-subunit isoforms (β-subunits) | further results |
| --- | --- | --- |
| COC(=O)C1=C(C)NC(C)=C([N+](=O)[O-])C1c1ccccc1C(F)(F)F (stereo not shown) [BayK 8644] | – | side effects in vivo [1]: severe side effects such as dystonic neurobehavioural syndrome, hypertension and arrhythmia |
| isolated domain II: isolated second β-interacting domain of BARP (SEQ ID NO:8) (PRAWPRRPRRDYSIDEKTDALFHEFLRHDPHFDDAPRHR) | interacted with β2, β3 and β4, but not with β1 isoforms | – |
| SYRDLWSLRASLELHAATASD [BARP Domain I peptide] | – | dissociation of β3-subunit from GST-AID (β3/AID complex): displaces the Cavβ3-subunit from the AID |
| Isolated BARP domain I: isolated AID-like β-interacting domain I of BARP, expressed as GST fusion | able to associate with all known) β-subunit isoforms | – |
